Source: the NIST ThermoML archive (doi:10.1016/j.fluid.2011.01.027)

CCCCCCn1cc[n+](C)c1.O=S(=O)([O-])C(F)(F)F [1-hexyl-3-methylimidazolium trifluoromethanesulfonate]
surface tension liquid-gas [mN/m]
Details | Wilhelmy plate method | de Nouy ring method
293.98 K | 32.58 | –
294.03 K | – | 32.64
298.11 K | – | 32.37
298.13 K | 32.37 | –
303.23 K | 32.17 | –
303.24 K | – | 32.19
308.28 K | 31.99 | –
308.32 K | – | 32.01
313.29 K | 31.8 | –
313.3 K | – | 31.86
318.29 K | – | 31.66
318.3 K | 31.64 | –
323.49 K | – | 31.42
323.5 K | 31.45 | –
328.04 K | 31.35 | –
328.12 K | – | 31.25
333.26 K | 31.09 | –
333.32 K | – | 30.89
337.85 K | 30.92 | –
337.88 K | – | 30.81
342.94 K | 30.72 | –
343.09 K | – | 30.5
347.58 K | 30.55 | –
347.59 K | – | 30.38
355.44 K | 30.28 | 30.06

CCCCCCn1cc[n+](C)c1.F[B-](F)(F)F [1-hexyl-3-methylimidazolium tetrafluoroborate]
surface tension liquid-gas [mN/m]
Details | Wilhelmy plate method | du Nouy ring method
268.58 K | 39.81 | 39.79
273.34 K | 39.52 | 39.54
277.72 K | 39.29 | –
277.76 K | – | 39.32
282.51 K | 39.04 | –
282.71 K | – | 39.21
288.13 K | 38.71 | 38.75
292.87 K | 38.47 | –
292.93 K | – | 38.49
298.07 K | 38.2 | 38.21
303.15 K | 37.88 | –
303.19 K | – | 37.85
308.22 K | – | 37.66
308.23 K | 37.64 | –
313.35 K | 37.32 | –
313.48 K | – | 37.33
318.39 K | – | 37.08
318.48 K | 37.08 | –
323.32 K | – | 36.83
323.34 K | 36.81 | –
328.17 K | 36.53 | –
328.2 K | – | 36.54
333.22 K | 36.25 | –
333.24 K | – | 36.21
337.92 K | 36.01 | –
337.97 K | – | 36
343.79 K | 35.68 | 35.7
348.5 K | 35.44 | –
348.54 K | – | 35.39
356.17 K | 34.99 | –
356.18 K | – | 35

CCn1cc[n+](C)c1.F[B-](F)(F)F [1-ethyl-3-methylimidazolium tetrafluoroborate]
surface tension liquid-gas [mN/m]
Details | Wilhelmy plate method | du Nouy ring method
288.05 K | – | 54.61
288.06 K | 54.61 | –
292.92 K | 54.28 | –
292.93 K | – | 54.55
298.1 K | 53.97 | –
298.12 K | – | 54.01
303.12 K | 53.65 | –
303.13 K | – | 53.96
308.27 K | 53.34 | 53.77
313.33 K | 52.98 | –
313.43 K | – | 53.05
318.3 K | 52.7 | –
318.35 K | – | 52.86
323.5 K | 52.39 | –
323.53 K | – | 52.54
328.4 K | 52.05 | –
328.54 K | – | 52.18
333.32 K | 51.74 | –
333.48 K | – | 51.87
338.38 K | – | 51.48
338.39 K | 51.4 | –
343.18 K | 51.11 | –
343.32 K | – | 51.11
348.7 K | 50.76 | –
348.78 K | – | 50.74
355.91 K | – | 50.26
355.99 K | 50.27 | –
